Assays:
[1] = target: T1, hDcpS (Homo sapiens, UniProt Q96C86); assay type: in vitro ADME; conditions: 100 μM compound, 20 nM hDcpS; for hDcpS Assay: fraction of the cap remaining after 1 h incubation with DcpS: 37 °C
T1 sequence (Q96C86 1-337): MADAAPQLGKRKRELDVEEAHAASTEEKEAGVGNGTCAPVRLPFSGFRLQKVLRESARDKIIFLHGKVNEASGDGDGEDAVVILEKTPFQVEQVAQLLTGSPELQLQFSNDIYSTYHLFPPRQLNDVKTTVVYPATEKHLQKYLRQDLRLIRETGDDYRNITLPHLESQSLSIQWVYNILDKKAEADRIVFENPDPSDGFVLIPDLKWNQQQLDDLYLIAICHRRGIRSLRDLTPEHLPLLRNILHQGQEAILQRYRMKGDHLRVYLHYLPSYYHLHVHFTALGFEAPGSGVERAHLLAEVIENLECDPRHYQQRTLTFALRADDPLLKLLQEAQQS
Method: Susceptibility to decapping scavenger (DcpS) is one of the factors that could potentially influence the cellular stability of mono- and dinucleotide cap analogs designed as translational inhibitors. Therefore, we studied the susceptibility of arylmethyl-modified dinucleotides to DcpS. The compounds (at 100 μM concentration each) were incubated with 20 nM of hDcpS, and the hydrolysis progress at different time points was analyzed via RP HPLC and compared to m^7GpppG (Figure 4 and Figure S3).
The enzymatic activity of DcpS was assayed at 37 °C in 50 mM Tris∙HCl, pH 7.6 containing 200 mM KCl, 0.5 mM EDTA. DcpS cleavage assays were carried out with 100 μM of the tested compound and 20 nM (monomer) of the hDcpS. Enzymatic reaction progress was examined after 30, 60 and 180 min. As a control, a sample was examined before adding enzyme. Aliquots of 15 μL were terminated by heat inactivation of the enzyme for 3 min at 98 °C. The samples were analyzed via RP HPLC equipped with a Supelcosil LC-18-T column (4.6 × 250 mm, 5 μm, flow rate 1.3 mL/min).

[2] = target: eukaryotic translation initiation factor 4E (eIF4E) (Mus musculus, UniProt P63073); assay: pyrene-probe fluorescent competitive-binding assay (PyFLINT-B) for cap analog-eIF4E; conditions: for effect of the N7 substituent on eIF4E binding (in words): compared to m^7GpppG / 1a or unmodified counterpart; for Kd: pyrene-based high-throughput competition assay, 30 °C, KD calculated from EC50, read-out: KD Cap-eIF4E ± SD; for EC50: Table S2
From the text: High affinity for eIF4E is a desirable feature of cap analogs designed for modulating translation, either as small molecules or as a part of mRNA. Thus, we studied how different substituents at the N7-position affected eIF4E-cap interaction. To this end, we first determined the affinity of m^7GpppG and Bn^7GpppG (1a) using time-synchronized fluorescence quenching titration, a very precise and well-established, but low-throughput method. Next, to evaluate the whole set of the synthesized compounds (1a–1r), we used a high-throughput competitive-binding assay based on a pyrene-labeled fluorescent probe. From this assay we determined relative affinities of the compounds represented by half-effective concentrations (EC50) (Figure 3A–C), which were then used to calculate dissociation constant (KD) values for cap analog–eIF4E complexes using previously reported equations (Table 2, Figure 3D).
To determine the dissociation constants of the library of N7-benzylated dinucleotide 5′ cap analogs for translation initiation factor 4E, a fluorescent competitive-binding assay (PyFLINT-B) was applied as previously described. The experiments were performed on a Synergy™ H1 plate reader in 96-well, black, non-binding assay plates. Each well contained an appropriate buffer (50 mM Hepes/KOH pH 7.2, 100 mM KCl and 0.5 mM EDTA), pyrene probe m^7Gp5C4Py (10 nM), substrate (in half-logarithmic dilutions from 850 μM to 0.03 μM for compound 1m and from 100 μM to 0.003 μM for m^7GpppG and the rest of the compounds) and protein eIF4E (75 nM). The m^7Gp5C4Py was synthesized as describer earlier. The pyrene probe was dissolved in water and concentration was determined spectrometrically at 345 nm using the extinction coefficient (21,000 M^−1 cm^−1). The eIF4E protein was centrifuged after defrosting (5 min, 4 °C, 10k rcf) and its concentration was determined spectrometrically at 280 nm using the extinction coefficient (52,940 M^−1 cm^−1). The reaction mixtures were preincubated (15 min, 300 rpm, 30 °C). All measurements were performed at 30 °C and the fluorescence detection at 345 nm excitation and 378 nm emission was recorded.
To determine EC50 values, GraphPad Prism 9.1.2 software was used. To fit the curves to the obtained data we used the following formula:(1) Y=Bottom+ Top−Bottom/1+ X/EC50 where: X, cap analog (ligand) concentration; EC50, concentration of the cap analog resulting in half-maximal response from the fluorescent probe–protein complex; Bottom, minimal signal from the negative control, which contains only the free probe; Top, maximal signal from the positive control, the mixture of the protein and the fluorescent probe.
The dissociation constants KD were then calculated using the equation described by Nikolovska-Coleska et al.:(2) KD=EC50−Pt+PL50KD_probe/L50+1/L50/KD_probe+P0/KD_probe+1 where: EC50, concentration of the cap analog resulting in half-maximal response from the fluorescent probe–protein complex; [Pt], total protein concentration; [PL]50, concentration of the probe–protein complex at 50% inhibition; KD_probe, dissociation constant of the complex between the fluorescent probe and the protein; [L]50, probe concentration at 50% inhibition; [P]0, free protein concentration at 0% inhibition.

[3] = target: eIF4E (Mus musculus, UniProt P63073); assay: fluorescence anisotropy (FA) competition assay with eIF4E; assay type: binding; conditions: Table S2; for EC50: 25 °C, probe m^7GTP-triazol-FAM 10 nM, eIF4E 100 nM; for Kd: calculated from EC50
From the text: The KD values determined from the high-throughput assay were in qualitative agreement with data from time-synchronized fluorescence quenching titration, justifying the use of the former for evaluation of the whole set of caps. […] To additionally verify the binding affinity data (especially for 1q and 1r, as mentioned above), we determined the binding affinities for all analogs using another independent assay, based on fluorescence anisotropy. The KD data determined by this method correlated very well with the results reported above (Table S2, Figure S2).
Fractions of the compounds were independently tested using a different method based on fluorescence anisotropy (FA). These experiments were performed on a Synergy™ H1 plate reader in 96-well, black, non-binding assay plates. Each well contained appropriate buffer (50 mM HEPES/KOH pH 7.2, 100 mM KCl, 0.5 mM EDTA i 1 mM DTT), the fluorescent probe m^7GTP-triazol-FAM (10 nM), substrate (in a 2.08-fold dilution, starting from 60 μM) and protein eIF4E (100 nM). The m^7GTP-triazol-FAM was synthesized as describer earlier. All measurements were performed at 25 °C. Determined EC50 values were means ± SD of three independent experiments. The dissociation constants KD were then calculated using the equation described by Nikolovska-Coleska as described earlier.

[4] = system: cap-dependent translation in rabbit reticulocyte lysate (RRL); assay: inhibition of cap-dependent translation in rabbit reticulocyte lysate (RRL); assay type: biochemical; conditions: RRL, cap analog and mRNA added at the same time (no pre-incubation), 60 min, 30 °C; read-out: Translation Inhibition IC50
Method: After determining the affinity for eIF4E and susceptibility to DcpS, we evaluated the analogs as inhibitors of protein translation in rabbit reticulocyte lysates (RRL). To enable better assessment of how these two factors influenced inhibitory properties, we performed two sets of experiments. In the first set, cap analogs were added to RRL along with luciferase-encoding reporter mRNA followed by a protein activity (luminescence) readout after 1 h, whereas in the second set cap analogs were additionally preincubated in RRL for 1 h prior to addition of mRNA. Based on previously reported findings, we expected that in the second experimental setup, cap analogs susceptible to DcpS would lose their inhibitory potency, whereas compounds resistant to DcpS would remain similarly active.
The ability of the N7-benzyl cap analogues to inhibit cap-dependent translation was assayed in a rabbit reticulocyte lysate (RRL) system. Two sets of experiments were performed. In both variants, in vitro translation reactions (10 μL total volume) contained a tested cap analog (inhibitor) and an in vitro transcribed, ARCA-capped mRNA encoding Gaussia luciferase at 1 μg/mL final concentration. In experimental variant A, cap analogues at concentrations in the range of 0 to 64 μM and mRNA were added to the reaction mixture at the same time. Reactions were incubated at 30 °C for 60 min and then stopped by freezing in liquid nitrogen. In experimental variant B, the cap analogues were added at concentrations in the range of 0 to 160 μM. Reactions were pre-incubated at 30 °C for 60 min prior to addition of mRNA; after addition of mRNA incubation was continuous at 30 °C for 60 min and then stopped by freezing in liquid nitrogen. To detect luminescence from Gaussia luciferase, 50 μL of 10 ng/mL h-coelenterazine (NanoLight, Norman, OK, USA) in PBS was added to 10 μL of RRL and the luminescence was measured with a Synergy H1 (BioTek, Winooski, VT, USA) microplate reader.

eIF4E, sequence (P63073 whole entry): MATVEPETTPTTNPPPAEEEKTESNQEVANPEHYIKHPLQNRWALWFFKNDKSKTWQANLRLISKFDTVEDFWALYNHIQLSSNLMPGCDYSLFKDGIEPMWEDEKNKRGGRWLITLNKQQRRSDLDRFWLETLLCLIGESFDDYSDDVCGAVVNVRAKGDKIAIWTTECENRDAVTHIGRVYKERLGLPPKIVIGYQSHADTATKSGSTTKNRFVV
eukaryotic translation initiation factor 4E (eIF4E), sequence (P63073 whole entry): as above

Row | Structure (SMILES) | susceptibility to hDcpS (in words) [1] | hDcpS Assay: fraction of the cap remaining after 1 h incubation with DcpS [1] | effect of the N7 substituent on eIF4E binding (in words) [2] | Kd [2] [nM] | EC50 [3] [nM] | Kd [3] [nM] | IC50 [4] [nM] | EC50 [2] [nM] | conversion after 1 h of incubation with hDcpS [1] [%]
1 | Cc1ccccc1C[n+]1cn([C@@H]2O[C@H](COP(=O)(O)OP(=O)([O-])OP(=O)(O)OC[C@H]3O[C@@H](n4cnc5c(=O)[nH]c(N)nc54)[C@H](O)[C@@H]3O)[C@@H](O)[C@H]2O)c2nc(N)nc(O)c21 [1b, 2-MeBn^7GpppG] | very slowly hydrolyzed | 0.88 | decreased the binding affinity by eight-fold | 1910 ± 360 | 3100 ± 100 | 1120 | 154000 ± 88000 |  | 
2 | Cc1ccc(C[n+]2cn([C@@H]3O[C@H](COP(=O)(O)OP(=O)([O-])OP(=O)(O)OC[C@H]4O[C@@H](n5cnc6c(=O)[nH]c(N)nc65)[C@H](O)[C@@H]4O)[C@@H](O)[C@H]3O)c3nc(N)nc(O)c32)cc1 [1d, 4-MeBn^7GpppG] | almost as good a substrate as Bn^7GpppG | 0.53 |  | 482 ± 81 | 860 ± 30 | 295 ± 13 | 16900 ± 3500 | 5600 | 
3 | Cc1cc(C)cc(C[n+]2cn([C@@H]3O[C@H](COP(=O)(O)OP(=O)([O-])OP(=O)(O)OC[C@H]4O[C@@H](n5cnc6c(=O)[nH]c(N)nc65)[C@H](O)[C@@H]4O)[C@@H](O)[C@H]3O)c3nc(N)nc(O)c32)c1 [1f, 3,5-di-MeBn^7GpppG] | Lower susceptibility to hydrolysis | 0.95 |  | 646 ± 114 | 1100 ± 100 | 384 ± 41 | 13200 ± 2000 | 7500 | 
4 | Nc1nc(O)c2c(n1)n([C@@H]1O[C@H](COP(=O)(O)OP(=O)([O-])OP(=O)(O)OC[C@H]3O[C@@H](n4cnc5c(=O)[nH]c(N)nc54)[C@H](O)[C@@H]3O)[C@@H](O)[C@H]1O)c[n+]2Cc1ccc(F)cc1F [1j, 2,4-di-F-Bn^7GpppG] |  | 0.70 |  | 598 ± 87 | 870 ± 50 | 298 ± 18 | 8400 ± 1500 | 6900 | ~70
5 | Nc1nc(O)c2c(n1)n([C@@H]1O[C@H](COP(=O)(O)OP(=O)([O-])OP(=O)(O)OC[C@H]3O[C@@H](n4cnc5c(=O)[nH]c(N)nc54)[C@H](O)[C@@H]3O)[C@@H](O)[C@H]1O)c[n+]2Cc1ccc(C(=O)O)cc1 [1m, 4-COOH-Bn^7GpppG] | Lower susceptibility to hydrolysis | 0.93 | completely disrupted the binding | > 50000 |  |  | > 500000 |  | 
6 | Nc1nc(O)c2c(n1)n([C@@H]1O[C@H](COP(=O)(O)OP(=O)([O-])OP(=O)(O)OC[C@H]3O[C@@H](n4cnc5c(=O)[nH]c(N)nc54)[C@H](O)[C@@H]3O)[C@@H](O)[C@H]1O)c[n+]2Cc1cccc2ccccc12 [1o, α-Naphm^7GpppG] | lower susceptibility to hDcpS than m^7GpppG | 0.97 | disrupted the binding to a similar extent as 2-methylbenzyl | 3040 ± 490 | 2100 ± 100 | 739 ± 49 |  | 35000 | 
7 | Nc1nc(O)c2c(n1)n([C@@H]1O[C@H](COP(=O)(O)OP(=O)([O-])OP(=O)(O)OC[C@H]3O[C@@H](n4cnc5c(=O)[nH]c(N)nc54)[C@H](O)[C@@H]3O)[C@@H](O)[C@H]1O)c[n+]2Cc1ccc2ccccc2c1 [1p, β-Naphm^7GpppG] | lower susceptibility to hDcpS than m^7GpppG | 0.84 | disrupted the binding to a similar extent as 2-methylbenzyl | 1060 ± 190 |  |  | 15900 ± 3400 | 12000 ± 600 | 
